Measured values taken from article PMC12508063, “Chloroindazole based estrogen receptor β ligands with favorable pharmacokinetics promote functional remyelination and visual recovery” (Scientific Reports, 2025).
“And” between values parts separate entries of the source, which are not always exact repeats. Equal entries are not always repeated.

Columns and labels:
[1] = Oral PK of K102 at 40 mg/kg in female rats; format: in vivo, Sprague–Dawley rat; settings: female rat, PO 40 mg/kg, mean
CYP2D6 = CYP2D6 (Homo sapiens, UniProt P10635); experiment: CYP inhibition; settings: test compounds at 10 μM; substrate Dextromethorphan
Chain of CYP2D6 (P10635 whole entry): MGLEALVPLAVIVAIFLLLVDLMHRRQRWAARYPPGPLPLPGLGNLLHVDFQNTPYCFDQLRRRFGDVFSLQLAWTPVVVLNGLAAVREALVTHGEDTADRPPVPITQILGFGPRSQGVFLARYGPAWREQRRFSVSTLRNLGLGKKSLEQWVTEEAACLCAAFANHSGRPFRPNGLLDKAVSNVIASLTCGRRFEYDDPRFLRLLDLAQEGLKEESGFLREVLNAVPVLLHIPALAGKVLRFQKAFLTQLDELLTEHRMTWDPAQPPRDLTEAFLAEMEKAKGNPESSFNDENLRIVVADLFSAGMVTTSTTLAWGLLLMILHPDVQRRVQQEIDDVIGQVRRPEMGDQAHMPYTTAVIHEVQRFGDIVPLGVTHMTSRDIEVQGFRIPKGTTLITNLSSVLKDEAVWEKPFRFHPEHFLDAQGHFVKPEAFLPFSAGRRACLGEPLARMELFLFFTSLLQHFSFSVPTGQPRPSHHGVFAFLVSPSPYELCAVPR

[2] = Pharmacokinetics and brain/plasma distribution in CD1 mice (IV, SC, PO); settings: CD1 mouse
Description: Mice were dosed intravenously at 5 mg/kg, subcutaneously at 10 mg/kg, and orally at 25 mg/kg.
Only values above the LLOQ.(0.3 ng/mL) were plotted.

[3] = Oral PK of K102 at 40 mg/kg in female mice; format: in vivo, C57BL/6 mouse; settings: female mouse, PO 40 mg/kg, mean
[4] = Hepatocyte stability (mouse)
CYP1A2 = CYP1A2 (Homo sapiens, UniProt P05177); experiment: CYP inhibition; settings: test compounds at 10 μM; substrate Phenacetin
Chain of CYP1A2 (P05177 whole entry): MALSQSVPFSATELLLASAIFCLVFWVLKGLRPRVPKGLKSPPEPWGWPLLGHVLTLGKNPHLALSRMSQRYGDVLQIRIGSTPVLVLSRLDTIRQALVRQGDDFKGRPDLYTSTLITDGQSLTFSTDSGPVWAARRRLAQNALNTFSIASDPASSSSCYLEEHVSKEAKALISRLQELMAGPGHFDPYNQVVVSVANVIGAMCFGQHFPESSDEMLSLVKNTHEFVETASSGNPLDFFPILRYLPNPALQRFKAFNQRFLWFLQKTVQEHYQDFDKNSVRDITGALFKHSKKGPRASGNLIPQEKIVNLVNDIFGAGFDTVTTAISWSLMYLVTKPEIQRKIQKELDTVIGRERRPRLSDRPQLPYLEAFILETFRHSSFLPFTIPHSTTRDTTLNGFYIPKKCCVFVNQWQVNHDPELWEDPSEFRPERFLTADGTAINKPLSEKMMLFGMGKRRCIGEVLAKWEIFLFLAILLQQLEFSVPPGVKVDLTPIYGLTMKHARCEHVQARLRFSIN

CYP2C9 = CYP2C9 (Homo sapiens, UniProt P11712); experiment: CYP inhibition; settings: test compounds at 10 μM; substrate Diclofenac Sodium
Chain of CYP2C9 (P11712 whole entry): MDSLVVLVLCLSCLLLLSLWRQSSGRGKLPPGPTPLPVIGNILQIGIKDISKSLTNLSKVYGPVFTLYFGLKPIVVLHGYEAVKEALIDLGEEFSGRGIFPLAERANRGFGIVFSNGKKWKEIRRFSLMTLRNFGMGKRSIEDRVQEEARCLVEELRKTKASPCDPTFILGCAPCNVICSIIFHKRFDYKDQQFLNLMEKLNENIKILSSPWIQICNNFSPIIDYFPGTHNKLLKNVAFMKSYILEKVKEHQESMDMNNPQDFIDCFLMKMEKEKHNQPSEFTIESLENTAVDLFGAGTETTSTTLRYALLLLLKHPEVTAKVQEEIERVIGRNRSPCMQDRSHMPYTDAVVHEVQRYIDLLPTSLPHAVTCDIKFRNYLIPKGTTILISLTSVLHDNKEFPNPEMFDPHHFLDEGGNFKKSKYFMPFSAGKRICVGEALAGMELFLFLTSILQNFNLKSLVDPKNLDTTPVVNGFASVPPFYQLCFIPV

[5] = Plasma protein binding (mouse)
[6] = tested on: Human iPSC-derived OPCs (Tempo's iOligo); experiment: Differentiation of human iPSC-derived OPCs (Tempo iOligo), MBP; format: cell-based; settings: human OLs, 10 nM, 18 days
Description: Mouse and Human primary cell cultures: Primary OPC/OL culture were isolated from the cortices of postnatal day 0–1 C57BL/6J mice of both sexes, using established protocols[11],[20],[21]. Mouse OPC and Neuronal Co-cultures: Primary neuronal cultures were established in Neurobasal medium with B27 and plated on poly-L-lysine-coated coverslips. After 12 days, OPCs were isolated, counted, and added to neuronal cultures and media was replaced with neuronal and proliferation media for 3 days, then switched to maturation media that maintained both neurons and OLs. Human iPSC-derived OPCs (Tempo’s iOligo™) were expanded, cryopreserved, and later plated on Matrigel-coated coverslips. After 3 days in growth medium, cells were treated for 3 weeks with T3 containing maturation medium. Differentiation into myelin-producing OLs was assessed using O4 (OL surface marker on pre-OLs) and myelin basic protein (MBP) immunohistochemistry. In all conditions compounds or vehicle were added to culture during differentiation for either 5 days (mouse) or 18 days (human). […]
Tempo’s iOligo (OPC) cells form branched bipolar and tripolar structures when cultured as a monolayer and express OL markers, including O4, NG2, and CNPase. […] After plating human OPCs and allowing two days of growth in expansion media, the culture medium was switched to T3 + maturation medium and evaluated for MBP expression (Fig. 8i). […]

[7] = hepatocytes
[8] = microsomes

## Cc1cc(O)ccc1-n1nc2ccc(O)cc2c1Cl [Compound K102, IndCl-o-Me]
[1]
  AUCInf/D: 235.1 kg·ng·h/mL/mg
  AUClast: 9403 ng·h/mL
  Cmax: 1657 ng/mL
  Tmax: 15 min
CYP2D6
  CYP Inhibition Percentage CYP2D6: 18.26%
[2]; IV 5 mg/kg
  Kp AUC0-t (brain/plasma): 0.43
  Kp AUClast (brain/plasma): 0.41
  Ratio of Cmax (brain/plasma): 0.54
  Vss_obs: 5.74 L/kg
[2]; IV 5 mg/kg, brain
  AUC0-t: 211 ng·h/g
  T1/2: 52.2 min
  Tmax: 6 min
[2]; IV 5 mg/kg, plasma
  AUC0-t: 491 ng·h/mL
  C0 or max: 3256 ng/mL
  Cl_obs: 169 mL/min/kg
  T1/2: 55.2 min
[2]; PO 25 mg/kg
  Kp AUC0-t (brain/plasma): 0.40
  Ratio of Cmax (brain/plasma): 0.59
[2]; PO 25 mg/kg, brain
  AUC0-t: 391 ng·h/g
  Cmax: 279 ng/g
  Tmax: 15 min
[2]; PO 25 mg/kg, brain, 25 mg/kg
  T1/2 (brain retention): 288 min and 287 min
[2]; PO 25 mg/kg, plasma
  AUC0-t: 991 ng·h/mL
  Cmax: 471 ng/mL
  T1/2: 611.4 min
  Tmax: 4.98 min
[2]; PO 25 mg/kg, plasma, 25 mg/kg
  F (Bioavailability): 40% and 40.4%
[2]; PO 25 mpk
  AUCinf plasma: 991 ng·h/mL
  Brain/Plasma Ratio(%): 40%
[2]; SC 10 mg/kg
  Kp AUC0-t (brain/plasma): 0.35
  Kp AUClast (brain/plasma): 0.35
  Ratio of Cmax (brain/plasma): 0.24
[2]; SC 10 mg/kg, brain
  AUC0-t: 477 ng·h/g
  Cmax: 218 ng/g
  Tmax: 30 min
[2]; SC 10 mg/kg, brain, 10 mg/kg
  T1/2 (brain retention): 120 min
[2]; SC 10 mg/kg, brain, listed as IndCl-o-Me, 10 mg/kg
  T1/2 (brain retention): 118 min
[2]; SC 10 mg/kg, plasma
  AUC0-t: 1385 ng·h/mL
  Cmax: 919 ng/mL
  T1/2: 134 min
  Tmax: 4.98 min
[2]; SC 10 mpk
  AUCinf brain: 480 ng·h/g
  AUCinf plasma: 1390 ng·h/mL
  Brain/Plasma Ratio(%): 35%
[3]
  AUCExtr: 13.0%
  AUCInf: 855 ng·h/mL
  AUCInf/D: 21.4 kg·ng·h/mL/mg
  AUClast: 748 ng·h/mL
  Cmax: 945 ng/mL
  MRTInf: 248 min
  Tmax: 15 min
  t1/2: 256 min
[4]
  Hepatocyte Stability (Mouse) CLint: 86.57 µL/min/mg protein
[4]; mouse, hepatocytes
  Hepatocyte Stability (Mouse) t1/2: 16.01 min
CYP1A2
  CYP Inhibition Percentage CYP1A2: 26.19%
CYP2C9
  CYP Inhibition Percentage CYP2C9: 36.09%
[5]
  Protein Binding (% Bound) Mouse: 96.81%
[6]
  MBP levels vs vehicle control: significantly increased

## Oc1ccc(-n2nc3ccc(O)cc3c2Cl)c(O)c1 [Compound K110, IndCl-o-OH]
[7]
  Hepatocyte Stability (Human) CLint: 12.69 µL/min/mg protein
[7]; 0.25 h
  Hepatocyte Stability (Human) % Remaining (15 min): 87.14%
[8]
  Liver Microsome Stability (Human) CLint: 13.64 µL/min/mg protein
[8]; 0.5 h
  Liver Microsome Stability (Human) % Remaining (30 min): 66.88%
